The test deals with BDF1 mice, M5076 sarcoma s.c., survival/tumor T/C. The experiment in a line: NCI In Vivo Anticancer Drug Screen. Data for tumor model Sarcoma M5076 (subcutaneous) in B6D2F1 (BDF1) mice. Here is the method: The antitumor activity of compounds was measured in mice bearing transplantable tumors. Survival or tumor size were measured and the results are expressed as the measurement made in the treated group (T) divided by the measurement made in the vehicle treated control group (C). The tumor model used in this assay is Sarcoma M5076 (subcutaneous) in B6D2F1 (BDF1) mice

Where [1] appears, read: endpoint: median survival time, dose: 50.0 mg/kg/injection, schedule: Q01DX009 (ip), vehicle: saline with Tween-80, higher = longer survival.
[2] abbreviates: endpoint: median survival time, dose: 100.0 mg/kg/injection, schedule: Q01DX009 (ip), vehicle: saline with Tween-80, higher = longer survival.
Setting [3] is: endpoint: median survival time, dose: 200.0 mg/kg/injection, schedule: Q01DX009 (ip), vehicle: saline with Tween-80, higher = longer survival.
The mark [4] stands for this setting: endpoint: median tumor weight (est.), dose: 50.0 mg/kg/injection, schedule: Q01DX009 (ip), vehicle: saline with Tween-80, higher = larger tumour.
Where [5] appears, read: endpoint: median tumor weight (est.), dose: 100.0 mg/kg/injection, schedule: Q01DX009 (ip), vehicle: saline with Tween-80, higher = larger tumour.
Where [6] appears, read: endpoint: median tumor weight (est.), dose: 200.0 mg/kg/injection, schedule: Q01DX009 (ip), vehicle: saline with Tween-80, higher = larger tumour.

“And” between values parts separate entries of the source, which are not always exact repeats. Equal entries are not always repeated. Records with an inconclusive call do not appear.

For `NC(C/[N+]([O-])=N/O)C(=O)O` (stereo not drawn), the T/C is 88 % of control (endpoint: mean tumor weight, dose: 62.5 mg/kg/injection, schedule: Q02DX011 (ip), vehicle: saline, higher = larger tumour); 108 % of control (endpoint: mean tumor weight, dose: 125.0 mg/kg/injection, schedule: Q02DX011 (ip), vehicle: saline, higher = larger tumour); 42 % of control (endpoint: mean tumor weight, dose: 250.0 mg/kg/injection, schedule: Q02DX011 (ip), vehicle: saline, higher = larger tumour); 88 % of control and 90 % of control (endpoint: median survival time, dose: 8.78 mg/kg/injection, schedule: Q01DX010 (ip), vehicle: alkali diluted with saline, higher = longer survival); 91 % of control and 93 % of control (endpoint: median survival time, dose: 13.2 mg/kg/injection, schedule: Q01DX010 (ip), vehicle: alkali diluted with saline, higher = longer survival); 118 % of control (endpoint: median survival time, dose: 19.8 mg/kg/injection, schedule: Q01DX010 (ip), vehicle: alkali diluted with saline, higher = longer survival). Also, the T/C was 114 % of control and 118 % of control (endpoint: median survival time, dose: 29.6 mg/kg/injection, schedule: Q01DX010 (ip), vehicle: alkali diluted with saline, higher = longer survival); 105 % of control and 106 % of control (endpoint: median survival time, dose: 44.4 mg/kg/injection, schedule: Q01DX010 (ip), vehicle: alkali diluted with saline, higher = longer survival); 89 % of control and 90 % of control (endpoint: median survival time, dose: 52.7 mg/kg/injection, schedule: Q04DX005 (ip), vehicle: alkali diluted with saline, higher = longer survival); 115 % of control and 116 % of control (endpoint: median survival time, dose: 66.7 mg/kg/injection, schedule: Q01DX010 (ip), vehicle: alkali diluted with saline, higher = longer survival); 93 % of control (endpoint: median survival time, dose: 79.0 mg/kg/injection, schedule: Q04DX005 (ip), vehicle: alkali diluted with saline, higher = longer survival); 123 % of control (endpoint: median survival time, dose: 119.0 mg/kg/injection, schedule: Q04DX005 (ip), vehicle: alkali diluted with saline, higher = longer survival). The T/C by setting is: (endpoint: median survival time, dose: 267.0 mg/kg/injection, schedule: Q04DX005 (ip), vehicle: alkali diluted with saline, higher = longer survival) 106 % of control and 112 % of control; (endpoint: median survival time, dose: 400.0 mg/kg/injection, schedule: Q04DX005 (ip), vehicle: alkali diluted with saline, higher = longer survival) 115 % of control; (endpoint: median tumor weight (est.), dose: 50.0 mg/kg/injection, schedule: Q02DX011 (ip), vehicle: alkali diluted with saline, higher = larger tumour) 91 % of control; (endpoint: median tumor weight (est.), dose: 100.0 mg/kg/injection, schedule: Q02DX011 (ip), vehicle: alkali diluted with saline, higher = larger tumour) 66 % of control.
Consider `CCN1Cc2c(/C=C/c3ccccc3)nc3ccc(OC)cc3c2N(c2cccc(Cl)c2)C1`, for which the T/C runs as follows: under setting [1], 99 % of control; under setting [2], 99 % of control; under setting [3], 105 % of control; under setting [4], 60 % of control; under setting [5], 105 % of control; under setting [6], 73 % of control.
As for `O=C1CC(Cl)(CS(F)(F)(F)(F)F)O1` (stereo not drawn), the T/C under setting [1] was 100 % of control and the T/C under setting [4] was 56 % of control.
Turning to `COc1cc2cc3c4cc(OC)c(OC)cc4cc[n+]3c(C)c2cc1OC` (tested in a mixture with another compound), the T/C is, setting by setting: (endpoint: mean tumor weight, dose: 37.5 mg/kg/injection, schedule: Q02DX011 (ip), vehicle: saline, higher = larger tumour) 64 % of control; (endpoint: mean tumor weight, dose: 75.0 mg/kg/injection, schedule: Q02DX011 (ip), vehicle: saline, higher = larger tumour) 45 % of control; (endpoint: mean tumor weight, dose: 150.0 mg/kg/injection, schedule: Q02DX011 (ip), vehicle: saline, higher = larger tumour) 13 % of control.
On to `COc1ccc(Cl)[n+]([O-])n1`, for which the T/C is 100 % of control (endpoint: median survival time, dose: 50.0 mg/kg/injection, schedule: Q04DX003 (ip), vehicle: Klucel (hydroxypropylcellulose) (HPC), higher = longer survival) and 100 % of control (endpoint: median survival time, dose: 100.0 mg/kg/injection, schedule: Q04DX003 (ip), vehicle: Klucel (hydroxypropylcellulose) (HPC), higher = longer survival).
In the case of `N[C@@H](Cc1ccc(N(CCCl)CCCl)cc1)C(=O)O`, the T/C is 105 % of control (endpoint: median survival time, dose: 0.75 mg/kg/injection, schedule: Q04DX006 (ip), vehicle: saline, higher = longer survival); 111 % of control (endpoint: median survival time, dose: 1.5 mg/kg/injection, schedule: Q04DX006 (ip), vehicle: saline, higher = longer survival); 230 % of control (endpoint: median survival time, dose: 3.0 mg/kg/injection, schedule: Q02DX033 (ip), vehicle: saline, higher = longer survival); 121 % of control (endpoint: median survival time, dose: 3.0 mg/kg/injection, schedule: Q04DX006 (ip), vehicle: saline, higher = longer survival); 154 % of control and 155 % of control (endpoint: median survival time, dose: 3.24 mg/kg/injection, schedule: Q01DX001 (ip), vehicle: saline, higher = longer survival).
`NC(=O)c1cc(N2CC2)c([N+](=O)[O-])cc1[N+](=O)[O-]`: the T/C by setting is: (endpoint: median survival time, dose: 64.0 mg/kg/injection, schedule: Q01DX001 (ip), vehicle: saline, higher = longer survival) 103 % of control (2×) and 97 % of control; (endpoint: median survival time, dose: 80.0 mg/kg/injection, schedule: Q01DX001 (ip), vehicle: saline, higher = longer survival) 95 % of control; (endpoint: median survival time, dose: 100.0 mg/kg/injection, schedule: Q01DX001 (ip), vehicle: saline, higher = longer survival) 106 % of control and 110 % of control and 95 % of control.
In the case of `COC12C(COC(N)=O)C3=C(C(=O)C(C)=C(N)C3=O)N1CC1C2N1C` (stereo not drawn), the T/C (endpoint: mean tumor weight, dose: 1.5 mg/kg/injection, schedule: Q02DX011 (ip), vehicle: saline, higher = larger tumour) was 59 % of control; the T/C (endpoint: mean tumor weight, dose: 3.0 mg/kg/injection, schedule: Q02DX011 (ip), vehicle: saline, higher = larger tumour) is 51 % of control; the T/C (endpoint: mean tumor weight, dose: 6.0 mg/kg/injection, schedule: Q02DX011 (ip), vehicle: saline, higher = larger tumour) is 2 % of control; the T/C (endpoint: median tumor weight (est.), dose: 1.5 mg/kg/injection, schedule: Q02DX011 (ip), vehicle: saline, higher = larger tumour) is 65 % of control; the T/C (endpoint: median tumor weight (est.), dose: 3.0 mg/kg/injection, schedule: Q02DX011 (ip), vehicle: saline, higher = larger tumour) was 49 % of control and 53 % of control; the T/C (endpoint: median tumor weight (est.), dose: 6.0 mg/kg/injection, schedule: Q02DX011 (ip), vehicle: saline, higher = larger tumour) was 1 % of control.
In the case of `CCC(NN)C(=O)OCc1ccccc1` (stereo not drawn), the T/C under setting [1] is 107 % of control; the T/C under setting [2] was 104 % of control; the T/C under setting [3] is 104 % of control; the T/C under setting [4] is 75 % of control; the T/C under setting [5] was 103 % of control; the T/C under setting [6] was 109 % of control.
For `O=C1/C(=C/c2ccc3c(c2)OCO3)SC(=S)N1c1ccc(Cl)c(Cl)c1`, the T/C runs as follows: under setting [1], 102 % of control; under setting [2], 90 % of control; under setting [4], 154 % of control; under setting [5], 116 % of control.
`O=C(O)c1c(CS(F)(F)(F)(F)F)cc(=O)oc1CS(F)(F)(F)(F)F`: the T/C under setting [1] was 98 % of control.
For `C1CN1c1nc(N2CC2)nc(N2CC2)n1`, the T/C is, setting by setting: (endpoint: mean tumor weight, dose: 0.1 mg/kg/injection, schedule: Q02DX011 (ip), vehicle: Klucel (hydroxypropylcellulose) (HPC), higher = larger tumour) 76 % of control; (endpoint: mean tumor weight, dose: 0.2 mg/kg/injection, schedule: Q02DX011 (ip), vehicle: Klucel (hydroxypropylcellulose) (HPC), higher = larger tumour) 25 % of control; (endpoint: mean tumor weight, dose: 0.4 mg/kg/injection, schedule: Q02DX011 (ip), vehicle: Klucel (hydroxypropylcellulose) (HPC), higher = larger tumour) 8 % of control; (endpoint: median survival time, dose: 0.06 mg/kg/injection, schedule: Q02DX011 (ip), vehicle: saline, higher = longer survival) 100 % of control; (endpoint: median survival time, dose: 0.13 mg/kg/injection, schedule: Q02DX011 (ip), vehicle: saline, higher = longer survival) 113 % of control; (endpoint: median survival time, dose: 0.25 mg/kg/injection, schedule: Q02DX011 (ip), vehicle: saline, higher = longer survival) 100 % of control. Also, the T/C (endpoint: median survival time, dose: 1.0 mg/kg/injection, schedule: Q02DX011 (ip), vehicle: saline, higher = longer survival) is 191 % of control.
Consider `O=C(N/N=C\c1cc(Br)cc(Br)c1O)N/N=C/c1cc(Br)cc(Br)c1O`, for which the T/C is 111 % of control (endpoint: median survival time, dose: 200.0 mg/kg/injection, schedule: Q04DX003 (ip), vehicle: saline with Tween-80, higher = longer survival); 112 % of control (endpoint: median survival time, dose: 400.0 mg/kg/injection, schedule: Q04DX003 (ip), vehicle: saline with Tween-80, higher = longer survival); 97 % of control (endpoint: median survival time, dose: 800.0 mg/kg/injection, schedule: Q04DX003 (ip), vehicle: saline with Tween-80, higher = longer survival).
Consider `COc1cc2c[n+](C)c3c4cc5c(cc4ccc3c2cc1OC)OCO5`, for which the T/C runs as follows: (endpoint: mean tumor weight, dose: 10.0 mg/kg/injection, schedule: Q02DX011 (ip), vehicle: Klucel (hydroxypropylcellulose) (HPC), higher = larger tumour) 73 % of control; (endpoint: median tumor weight (est.), dose: 10.0 mg/kg/injection, schedule: Q02DX011 (ip), vehicle: Klucel (hydroxypropylcellulose) (HPC), higher = larger tumour) 91 % of control; (endpoint: median tumor weight (est.), dose: 20.0 mg/kg/injection, schedule: Q02DX011 (ip), vehicle: Klucel (hydroxypropylcellulose) (HPC), higher = larger tumour) 56 % of control.
With `CCCCOc1ccc(-n2c(=O)[nH]c3ccccc3c2=O)cc1`, the T/C is 101 % of control under setting [1]; 94 % of control under setting [2]; 101 % of control under setting [3]; 97 % of control under setting [4]; 100 % of control under setting [5]; 105 % of control under setting [6].

These data come from PubChem BioAssay AID288 (DTP/NCI, 2004).
